Assay [1] has as its target T1, SARS-CoV-2 PLpro (nsp3 1564–1878) (Severe acute respiratory syndrome coronavirus 2, UniProt P0DTD1). Description: biochemical. Further details: FRET-quenched peptide (Pro3) cleavage by PLpro, 10 min pre-incubation, slope over 20 min, normalised to no-compound control. The note with it: high concentration screen, read-out: % of control remaining.
The target in assay [2] is T1, SARS-CoV-2 PLpro (nsp3 1564–1878). Kind of assay: biochemical. Further details: FRET-quenched peptide (Pro3) cleavage by PLpro, 10 min pre-incubation, slope over 20 min, normalised to no-compound control. The note with it: low concentration screen, read-out: % of control remaining.

Where a name gives a salt, the structure may show the parent alone. Read-outs that look alike come from different tables or passages of the source.

As for `COc1nc(C)nc(Cl)c1NC1=NCCN1` [Moxonidine hydrochloride], the remaining activity at 3.75 µM in assay [1] (Well no.=920) was determined as 102%. Further, the remaining activity at 1.25 µM in assay [2] (Well no.=920) stood at 100%.

Turning to `N#C[C@H](O[C@@H]1O[C@H](CO[C@@H]2O[C@H](CO)[C@@H](O)[C@H](O)[C@H]2O)[C@@H](O)[C@H](O)[C@H]1O)c1ccccc1` [Amygdalin], the remaining activity at 3.75 µM in assay [1] (Well no.=3472) is 102%. The remaining activity at 1.25 µM in assay [2] (Well no.=3472) stood at 100%.

Consider `Cc1cccn2c(=O)c(-c3nnn[nH]3)cnc12` [Pemirolast (potassium)], for which the remaining activity at 3.75 µM in assay [1] (Well no.=7611) worked out at 96.7%. Also, the remaining activity at 1.25 µM in assay [2] (Well no.=7611) is 98.6%.

Regarding `CCCN1CCO[C@@H]2c3cc(O)ccc3OC[C@H]21` [S(+)-PD 128,907 hydrochloride], in assay [1] (Well no.=1265), the remaining activity at 3.75 µM is 104%. Besides, in assay [2] (Well no.=1265), the remaining activity at 1.25 µM stood at 102%.

Consider `NC1(C(=O)O)CC1` [1-Aminocyclopropanecarboxylic acid hydrochloride], for which the remaining activity at 3.75 µM in assay [1] (Well no.=341) turned out to be 102%. Also, in assay [2] (Well no.=341), the remaining activity at 1.25 µM was found to be 100%.

On to `Cc1ccc(OC[C@H](O)[C@@H](C)NC(C)C)c2c1CCC2` [ICI 118,551 hydrochloride], for which the remaining activity at 3.75 µM in assay [1] (Well no.=1113) was 102%. Also, the remaining activity at 1.25 µM in assay [2] (Well no.=1113) is 100%.

Take `CN(C)C(=O)c1ccc(S(=O)(=O)c2ccc(NC(=O)[C@@](C)(O)C(F)(F)F)c(Cl)c2)cc1` [AZD7545]: the remaining activity at 3.75 µM in assay [1] (Well no.=8528) stood at 98.2%. The remaining activity at 1.25 µM in assay [2] (Well no.=8528) was found to be 101%.

Consider `COc1ccc(S(=O)(=O)N2CCC[C@H]2C(=O)Nc2cc(C)cc(C)c2)cc1` [ACT-462206], for which, in assay [1] (Well no.=6052), the remaining activity at 3.75 µM is 90.9%. In assay [2] (Well no.=6052), the remaining activity at 1.25 µM was 95.5%.

As to `O=C(O)c1c[nH]c2ccccc12` [Indole-3-carboxylic acid], the remaining activity at 3.75 µM in assay [1] (Well no.=6741) turned out to be 97.8%. The remaining activity at 1.25 µM in assay [2] (Well no.=6741) worked out at 95.4%.

Consider `CCSC(=N)N` [S-Ethylisothiourea hydrobromide], for which, in assay [1] (Well no.=459), the remaining activity at 3.75 µM came out at 101%. Further, the remaining activity at 1.25 µM in assay [2] (Well no.=459) was 102%.

`CN(C)C(=O)C(CCN1CCC(O)(c2ccc(Cl)cc2)CC1)(c1ccccc1)c1ccccc1` [Loperamide.HCl]: in assay [1] (Well no.=1597), the remaining activity at 3.75 µM is 104%. For the same compound, the remaining activity at 1.25 µM in assay [2] (Well no.=1597) amounted to 104%.

As for `Nc1cc(C(Cl)=C(Cl)Cl)c(S(N)(=O)=O)cc1S(N)(=O)=O` [Clorsulon], the remaining activity at 3.75 µM in assay [1] (Well no.=5298) was 87.7%; in assay [1] (Well no.=7310), 97.7%. Moreover, the remaining activity at 1.25 µM in assay [2] (Well no.=5298) was determined as 87.3%; in assay [2] (Well no.=7310), 99.9%.

Take `C[C@H](CCC(=O)O)[C@H]1CC[C@H]2[C@@H]3CC[C@@H]4C[C@H](O)CC[C@]4(C)[C@H]3CC[C@]12C` [Lithocholic acid]: the remaining activity at 3.75 µM in assay [1] (Well no.=4646) turned out to be 93.6%; in assay [1] (Well no.=7307), 89.6%. Further, the remaining activity at 1.25 µM in assay [2] (Well no.=4646) was 95.7%; in assay [2] (Well no.=7307), 97.4%.

Take `CCOC(=O)OC(C)OC1=C(C(=O)Nc2ccccn2)N(C)S(=O)(=O)c2ccccc21` (stereo not drawn) [Ampiroxicam]: in assay [1] (Well no.=2125), the remaining activity at 3.75 µM is 103%. The remaining activity at 1.25 µM in assay [2] (Well no.=2125) stood at 101%.

Turning to `Cc1cccc(C)c1NC(=O)C1CCCCN1C` (stereo not drawn) [Mepivacaine HCl], in assay [1] (Well no.=4981), the remaining activity at 3.75 µM is 101%. Moreover, in assay [2] (Well no.=4981), the remaining activity at 1.25 µM was found to be 99.3%.

As for `N[C@@H]1C[C@H]1c1ccccc1` (racemic) [Tranylcypromine], the remaining activity at 3.75 µM in assay [1] (Well no.=1564) is 95.7%. Besides, the remaining activity at 1.25 µM in assay [2] (Well no.=1564) was determined as 95.7%.

Consider `O=S1(=O)CCN(CN2CCS(=O)(=O)NC2)CN1` [Taurolidine], for which the remaining activity at 3.75 µM in assay [1] (Well no.=5628) stood at 109%. Also, the remaining activity at 1.25 µM in assay [2] (Well no.=5628) is 103%.

As for `N=C(N)NC(=N)NCCc1ccccc1` [Phenformin HCl], in assay [1] (Well no.=4908), the remaining activity at 3.75 µM was determined as 98.5%. Besides, the remaining activity at 1.25 µM in assay [2] (Well no.=4908) was 100%.

Take `CCc1cc(-c2noc(-c3cc(OC)nc(C4CCCC4)c3)n2)cc(C)c1OC[C@@H](O)CO` [Cenerimod]: the remaining activity at 3.75 µM in assay [1] (Well no.=7052) was found to be 105%. Besides, the remaining activity at 1.25 µM in assay [2] (Well no.=7052) came out at 105%.

In the case of `CN[C@@H](C)C(=O)N[C@H](C(=O)N1CCC[C@H]1c1nc(C(=O)c2ccc(F)cc2)cs1)C1CCCCC1` [LCL161], in assay [1] (Well no.=6594), the remaining activity at 3.75 µM was determined as 94.5%. Moreover, the remaining activity at 1.25 µM in assay [2] (Well no.=6594) turned out to be 91.2%.

For the compound `OC(CCCN1CCCCC1)(c1ccccc1)c1ccccc1` [Diphenidol (hydrochloride)], the remaining activity at 3.75 µM in assay [1] (Well no.=7621) was 102%. Besides, in assay [2] (Well no.=7621), the remaining activity at 1.25 µM was 102%.

Consider `CN1CCc2cc(O)cc3c2[C@H]1Cc1ccc(O)c(O)c1-3` [R(-)-2,10,11-Trihydroxyaporphine hybrobromide], for which, in assay [1] (Well no.=588), the remaining activity at 3.75 µM came to 100%. Also, the remaining activity at 1.25 µM in assay [2] (Well no.=588) was found to be 104%.

Regarding `CCCCC/C=C\C/C=C\CCCCCCCCCCCC(=O)O` [13(Z),16(Z)-Docosadienoic acid], in assay [1] (Well no.=4462), the remaining activity at 3.75 µM turned out to be 101%. The remaining activity at 1.25 µM in assay [2] (Well no.=4462) is 100%.

On to `N#C/C(=C\c1ccc(O)c(O)c1)C(=O)NCc1ccccc1` [AG 490 - (E)-2-Cyano-3-(3,4-dihydrophenyl)-N-(phenylmethyl)-2-propenamide], for which the remaining activity at 3.75 µM in assay [1] (Well no.=2332) was 93.5%. Also, the remaining activity at 1.25 µM in assay [2] (Well no.=2332) was 95%.

As for `N[C@@H](CC(=O)N1CCn2c(nnc2C(F)(F)F)C1)Cc1cc(F)c(F)cc1F` [Sitagliptin phosphate monohydrate], the remaining activity at 3.75 µM in assay [1] (Well no.=4644) was determined as 102%. Besides, in assay [2] (Well no.=4644), the remaining activity at 1.25 µM is 105%.

Turning to `Cc1ccc2nc(N)[nH]c(=O)c2c1Sc1ccncc1` [Nolatrexed dihydrochloride], the remaining activity at 3.75 µM in assay [1] (Well no.=6980) is 100%. For the same compound, in assay [2] (Well no.=6980), the remaining activity at 1.25 µM was found to be 103%.

In the case of `Cn1nc(C(F)(F)F)cc1-c1cnc(N2CCc3cc(S(=O)(=O)Nc4c(F)cc(Cl)cc4F)cc(N4CCCC4=O)c32)nc1` [MGAT2-IN-1], the remaining activity at 3.75 µM in assay [1] (Well no.=8422) is 93.1%. For the same compound, the remaining activity at 1.25 µM in assay [2] (Well no.=8422) amounted to 94.8%.

Consider `CNCCCN1c2ccccc2CCc2ccccc21` [Desipramine hydrochloride], for which, in assay [1] (Well no.=545), the remaining activity at 3.75 µM was found to be 101%. For the same compound, the remaining activity at 1.25 µM in assay [2] (Well no.=545) is 99.2%.

Take `COc1cc(C[C@H]2C(=O)OC[C@@H]2Cc2ccc(OC)c(OC)c2)ccc1O` [Arctigenin - (3R,4R)-4-[(3,4-Dimethoxyphenyl)methyl]dihydro-3-[(4-hydroxy-3-methoxyphenyl)methyl]-2(3H)-furanone]: the remaining activity at 3.75 µM in assay [1] (Well no.=2446) came out at 105%. The remaining activity at 1.25 µM in assay [2] (Well no.=2446) worked out at 105%.

`CN/C(=N\c1ccc(C2=NNC(=O)CC2C)cc1)NC#N` (stereo not drawn) [Siguazodan]: the remaining activity at 3.75 µM in assay [1] (Well no.=2154) is 94.5%. The remaining activity at 1.25 µM in assay [2] (Well no.=2154) worked out at 91.7%.

Take `c1ccc(C2CC2)c(OCC2=NCCN2)c1` [Cirazoline hydrochloride]: the remaining activity at 3.75 µM in assay [1] (Well no.=537) stood at 103%. In assay [2] (Well no.=537), the remaining activity at 1.25 µM was determined as 106%.

The values above are taken from PMC8286840, “Identifying SARS-CoV-2 antiviral compounds by screening for small molecule inhibitors of Nsp3 papain-like protease” (Biochemical Journal, 2021).
